The text below walks through data of US9150577B2, “Heterocyclic compounds containing an indole core” (Boehringer Ingelheim International GmbH, priority 2009, dated 2015).

Broadly, the IC50 is the concentration that inhibits the measured activity by half.

Each structure is given as a SMILES string.

One assay deals with Human RSK2 (Homo sapiens (Human), UniProt P51812). As to the kind of experiment: Human RSK2 assay (Kinase Glo Plus, residual ATP).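 Further: recombinant human RSK2 phosphorylating a substrate peptide, 90 min at 28 °C, leftover ATP read by luminescence, RLU scaled between no-kinase background and uninhibited kinase controls, 4-parameter fit.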 The format is biochemical.
A further assay concerns NHE1. To be noted: cited from earlier work.

Human RSK2, sequence (P51812 whole entry): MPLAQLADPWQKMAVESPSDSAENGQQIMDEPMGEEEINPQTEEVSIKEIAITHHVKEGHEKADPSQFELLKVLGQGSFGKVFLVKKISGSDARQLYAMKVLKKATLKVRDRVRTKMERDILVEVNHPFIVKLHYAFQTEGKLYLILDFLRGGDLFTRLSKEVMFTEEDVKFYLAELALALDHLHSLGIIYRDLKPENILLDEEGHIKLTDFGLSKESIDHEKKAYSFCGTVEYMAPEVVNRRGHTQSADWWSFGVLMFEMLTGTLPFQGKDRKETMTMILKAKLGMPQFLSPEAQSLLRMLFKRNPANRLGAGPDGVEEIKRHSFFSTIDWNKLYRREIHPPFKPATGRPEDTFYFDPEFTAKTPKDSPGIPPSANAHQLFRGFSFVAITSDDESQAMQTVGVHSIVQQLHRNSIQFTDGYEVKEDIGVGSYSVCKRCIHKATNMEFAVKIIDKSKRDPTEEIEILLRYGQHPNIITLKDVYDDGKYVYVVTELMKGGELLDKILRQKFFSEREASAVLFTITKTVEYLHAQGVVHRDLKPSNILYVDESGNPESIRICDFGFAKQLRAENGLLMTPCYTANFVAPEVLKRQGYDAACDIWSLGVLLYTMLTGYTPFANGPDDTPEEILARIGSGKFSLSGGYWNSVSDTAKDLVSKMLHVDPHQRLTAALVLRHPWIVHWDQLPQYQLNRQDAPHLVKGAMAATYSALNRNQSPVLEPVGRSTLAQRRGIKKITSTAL

In the case of `CC(C)(O)Cn1c(NC(=O)c2ccc3cc4n(c3c2)CC(C)(C)CNC4=O)nc2ccccc21` [Example 86, N-[1-(2-hydroxy-2-methylpropyl)-1H-benzimidazol-2-yl]-4,4-dimethyl-1-oxo-2,3,4,5-tetrahydro-1H-[1,4]diazepino[1,2-a]indole-8-carboxamide], the IC50 on Human RSK2 stood at 5.9 nM.

`CN(C)CCNC(=O)c1ccccc1NC(=O)c1ccc2cc3n(c2c1)CCCNC3=O` [Example 230, N-(2-{[2-(dimethylamino)ethyl]carbamoyl}phenyl)-1-oxo-2,3,4,5-tetrahydro-1H-[1,4]diazepino[1,2-a]indole-8-carboxamide]: the IC50 on Human RSK2 came to 125 nM.

In the case of `CCn1c(NC(=O)c2ccc3cc4n(c3c2)CCCNC4=O)nc2cc(C)ccc21` [Example 40, N-(1-ethyl-5-methyl-1H-benzimidazol-2-yl)-1-oxo-2,3,4,5-tetrahydro-1H-[1,4]diazepino[1,2-a]indole-8-carboxamide], the IC50 at Human RSK2 came to 4.8 nM.

On to `Cc1ccc(-c2c(C(=O)CF)n(CCCO)c3ncnc(N)c23)cc1` [fmk], for which the “basal NHE1 activity” value with NHE1 (basal) is “without affecting basal activity”. In the assay on NHE1, the “phosphorylation of NHE1” value is reported as “inhibit”. Moreover, in the assay with NHE1 (phenylephrine-induced), the “phenylephrine-induced enhanced NHE1 activity” value is recorded as “inhibit”.

As to `CC(=O)c1cccc(NC(=O)c2ccc3cc4n(c3c2)CCCNC4=O)c1` [Example 187, N-(3-acetylphenyl)-1-oxo-2,3,4,5-tetrahydro-1H-[1,4]diazepino[1,2-a]indole-8-carboxamide], at Human RSK2, the IC50 worked out at 160 nM.

`COc1cccc(NC(=O)c2ccc3cc4n(c3c2)CCCNC4=O)c1` [Example 148, N-(3-methoxyphenyl)-1-oxo-2,3,4,5-tetrahydro-1H-[1,4]diazepino[1,2-a]indole-8-carboxamide]: at Human RSK2, the IC50 is 190 nM.

In the case of `CC(C)(C)c1nnc(NC(=O)c2ccc3cc4n(c3c2)CCCNC4=O)s1` [Example 110, N-(5-tert-butyl-1,3,4-thiadiazol-2-yl)-1-oxo-2,3,4,5-tetrahydro-1H-[1,4]diazepino[1,2-a]indole-8-carboxamide], the IC50 at Human RSK2 came out at 96 nM.

In the case of `O=C(Nc1ccccn1)c1ccc2cc3n(c2c1)CCCNC3=O` [Example 154, 1-oxo-N-(pyridin-2-yl)-2,3,4,5-tetrahydro-1H-[1,4]diazepino[1,2-a]indole-8-carboxamide], at Human RSK2, the IC50 was determined as 220 nM.

For `Cc1cc(NC(=O)c2ccc3cc4n(c3c2)[C@H](C)[C@H](C)NC4=O)no1` [Example 171, (3S,4R)-3,4-dimethyl-N-(5-methyl-1,2-oxazol-3-yl)-1-oxo-1,2,3,4-tetrahydropyrazino[1,2-a]indole-7-carboxamide], the IC50 at Human RSK2 stood at 4 nM.

As to `CC(C)n1c(NC(=O)c2ccc3cc4n(c3c2)[C@H](C)CNC4=O)nc2ccccc21` [Example 68, (4R)-4-methyl-1-oxo-N-[1-(propan-2-yl)-1H-benzimidazol-2-yl]-1,2,3,4-tetrahydropyrazino[1,2-a]indole-7-carboxamide], the IC50 on Human RSK2 amounted to 1.9 nM.

Regarding `CS(=O)(=O)c1ccc2c(c1)nc(NC(=O)c1ccc3cc4n(c3c1)CC1(CCNCC1)CNC4=O)n2CC(F)(F)F` [Example 239, N-[5-(methylsulfonyl)-1-(2,2,2-trifluoroethyl)-1H-benzimidazol-2-yl]-1-oxo-2,3-dihydro-1H-spiro[1,4-diazepino[1,2-a]indole-4,4′-piperidine]-8-carboxamide], the IC50 on Human RSK2 was determined as 51 nM.

Turning to `Cc1ccccc1Cn1cc(NC(=O)c2ccc3cc4n(c3c2)CCCNC4=O)cn1` [Example 34, N-[1-(2-methylbenzyl)-1H-pyrazol-4-yl]-1-oxo-2,3,4,5-tetrahydro-1H-[1,4]diazepino[1,2-a]indole-8-carboxamide], the IC50 at Human RSK2 was 7.9 nM.

Turning to `CCn1c(NC(=O)c2ccc3cc4n(c3c2)[C@@H](C)[C@H](C)NC4=O)nc2ccccc21` (relative stereo) [Example 80, N-(1-ethyl-1H-benzimidazol-2-yl)-trans-3,4-dimethyl-1-oxo-1,2,3,4-tetrahydropyrazino[1,2-a]indole-7-carboxamide], the IC50 at Human RSK2 worked out at 5 nM.

`Cn1cc(NC(=O)c2ccc3cc4n(c3c2)CCCNC4=O)ccc1=O` [Example 116, N-(1-methyl-6-oxo-1,6-dihydropyridin-3-yl)-1-oxo-2,3,4,5-tetrahydro-1H-[1,4]diazepino[1,2-a]indole-8-carboxamide]: at Human RSK2, the IC50 worked out at 110 nM.

As for `O=C(Nc1ccc(Cl)cc1)c1ccc2cc3n(c2c1)CCCNC3=O` [Example 4, N-(4-chlorophenyl)-1-oxo-2,3,4,5-tetrahydro-1H-[1,4]diazepino[1,2-a]indole-8-carboxamide], at Human RSK2, the 50% inhibitory concentration (IC50) was found to be 190 nM.

In the case of `O=C(Nc1nc2ccccc2n1C1CCCC1)c1ccc2cc3n(c2c1)CCCNC3=O` [Example 75, N-(1-cyclopentyl-1H-benzimidazol-2-yl)-1-oxo-2,3,4,5-tetrahydro-1H-[1,4]diazepino[1,2-a]indole-8-carboxamide], the IC50 at Human RSK2 is 25 nM.

For `CC(C)c1ccc2[nH]c(NC(=O)c3ccc4cc5n(c4c3)CCCNC5=O)nc2c1` [Example 42, 1-oxo-N-[5-(propan-2-yl)-1H-benzimidazol-2-yl]-2,3,4,5-tetrahydro-1H-[1,4]diazepino[1,2-a]indole-8-carboxamide], on Human RSK2, the IC50 is 6.2 nM.
